Test results from patent US20110015208A1, “PHARMACEUTICAL COMPOSITIONS CONTAINING DOPAMINE RECEPTOR LIGANDS AND METHODS OF TREATMENT USING DOPAMINE RECEPTOR LIGANDS” (priority 2007, published 2011).
Structures can show the parent of a compound that is named as a salt.

Tests used:
[1] = system: basal locomotor activity of mice; assay: Open field, basal locomotor activity of mice (Example 4B); assay type: in vivo, mouse; conditions: test condition water
Protocol: (§1) Cariprazine hydrochloride and escitalopram oxalate were evaluated for anti-manic effects using the amphetamine/chlordiazepoxide (AMPH/CDP) hyperactivity test.
(§2) Male C57B1/6J mice (8 weeks old) from Jackson Laboratories (Bar Harbor, Me.) were used in this study. Upon receipt, mice were assigned unique identification numbers (tail marked) and were group housed (4 mice/cage) in OPTI mouse ventilated cages. All animals remained housed in groups of four during the remainder of the study. During the period of acclimation, mice were examined on a regular basis, handled, and weighed to assure adequate health and suitability. Mice were maintained on a 12/12 light/dark cycle. The room temperature was maintained between 20 and 23° C. with a relative humidity maintained between 30% and 70%. Chow and water were provided ad libitum for the duration of the study. In each test, animals were randomly assigned across treatment groups.
(§3) Distance traveled is measured by consecutive beam breaks.
(§4) Data was analyzed by analysis of variance (ANOVA) followed by Fisher PLSD post-hoc analysis when appropriate. An effect was considered significant if p<0.05. Outliers that fell above and below two standard deviations from the mean were removed from the final analysis.

[2] = system: extracellular acetylcholine (ACh) in the frontal cortex; assay: Dual-probe microdialysis, acetylcholine in frontal cortex of freely-moving rats; assay type: in vivo, rat; conditions: for change in basal ACh levels compared to vehicle+saline-treated controls: escitalopram oxalate 1.0 mg/kg sc
Protocol: A dual-probe microdialysis study was conducted to determine the effects of oral administration of cariprazine hydrochloride, alone and in combination with escitalopram oxalate (administered subcutaneously), on extracellular concentrations of acetylcholine (ACh), dopamine (DA) and serotonin (5-HT) in the frontal cortex of freely-moving rats.
Experiments were carried out in male Sprague Dawley rats (250-350 g body weight; Charles River, UK). Animals were housed in groups of six on a 12 h/12 h light/dark cycle (lights on at 07.30 h), at an ambient temperature of 21±2° C. and 55±20% humidity. Food and water were available ad libitum. Animals were allowed to acclimatise to these conditions for at least 5 days prior to the study.
Rats were anaesthetised with isoflurane (5% to induce, 2% to maintain) in an O2/N2O (1 litre/min each) mixture delivered via an anaesthetic unit (St Bernard Medical Services, UK). Concentric microdialysis probes with 2 mm exposed polyarylethersulphone (PAES) membrane tip (CMA) were stereotaxically implanted bilaterally into the prefrontal cortex (coordinates: AP: +3.2 mm; L: +/−2.5 mm relative to bregma; V: −4.0 mm relative to the skull surface; taken from the stereotaxic atlas of Paxinos and Watson (Paxinos G, Watson C., The Rat Brain in Stereotaxic Coordinates, 2nd Edition, London: Academic Press, 1986). The upper incisor bar was set at 3.3 mm below the interaural line so that the skull surface between bregma and lambda was horizontal. The coordinates for each probe were identical from bregma except for the lateral measurement as one probe was placed to the left of the midline and the other to the right. Samples were measured from the same side in each rat (e.g. left probe was used to measure ACh and right probe was used to measure DA and 5-HT). Additional burr holes were made for skull screws (stainless steel) and the probes were secured using dental cement. […]

[3] = system: basal locomotor activity of mice; assay: Open field, basal locomotor activity of mice (Example 4A); assay type: in vivo, mouse; conditions: for Total Distance Traveled [mean ± SEM]: test condition water, 60 min pretreatment
Protocol: as §1
as §2, with “C57B1/6J mice from Jackson” for “C57B1/6J mice (8 weeks old) from Jackson”, “this study. Mice were received at 6-weeks of age. Upon receipt,” for “this study. Upon receipt,”, “group housed with 4 mice/cage. All animals” for “group housed (4 mice/cage) in OPTI mouse ventilated cages. All animals”, “the study. All mice were acclimated to the colony room for at least two weeks prior to testing and were subsequently tested at an average age of 8 weeks of age. During the” for “the study. During the”
as §3, §4

[4] = system: d-amphetamine/chlordiazepoxide mixture (AMPH/CDP)-induced hyperactivity in mice; assay: d-Amphetamine/chlordiazepoxide (AMPH/CDP) hyperactivity test (Example 4A); assay type: in vivo, mouse; conditions: for Total Distance Traveled [mean ± SEM]: test condition AMPH/CDP, 60 min pretreatment
Protocol: as §1
as §2, with “C57B1/6J mice from Jackson” for “C57B1/6J mice (8 weeks old) from Jackson”, “this study. Mice were received at 6-weeks of age. Upon receipt,” for “this study. Upon receipt,”, “group housed with 4 mice/cage. All animals” for “group housed (4 mice/cage) in OPTI mouse ventilated cages. All animals”, “the study. All mice were acclimated to the colony room for at least two weeks prior to testing and were subsequently tested at an average age of 8 weeks of age. During the” for “the study. During the”
d-Amphetamine sulfate (Sigma, 4.0 mg/kg) and chlordiazepoxide (CDP; Sigma, 2.5 mg/kg) were dissolved in sterile water and were administered intraperitoneally at a dose volume of 10 ml/kg.
as §3, §4

CN(C)C(=O)N[C@H]1CC[C@H](CCN2CCN(c3cccc(Cl)c3Cl)CC2)CC1 [Cariprazine hydrochloride, trans-4-{2-[4-(2,3-dichlorophenyl)-piperazin-1-yl]-ethyl}-N,N-dimethylcarbamoyl-cyclohexylamine hydrochloride]
Total Distance Traveled [mean ± SEM] ([1]; cariprazine HCl 0.03 mg/kg oral): 4013 ± 343 cm/60 min
Total Distance Traveled [mean ± SEM] ([1]; cariprazine HCl 0.10 mg/kg oral): 2697 ± 259 cm/60 min
efflux of ACh in the frontal cortex ([2]; cariprazine hydrochloride alone 0.03, 0.1 and 0.3 mg/kg po): no significant effect
effect on basal locomotor activity compared to water ([3]; cariprazine hydrochloride 0.10 mg/kg oral): trend toward a significant decrease
effect on basal activity compared to water ([3]; cariprazine hydrochloride 0.30 mg/kg oral): significantly decreased
Total Distance Traveled [mean ± SEM] ([3]; 0.03 mg/kg oral): 4056 ± 427 cm/60 min
Total Distance Traveled [mean ± SEM] ([3]; 0.10 mg/kg oral): 1726 ± 112 cm/60 min
Total Distance Traveled [mean ± SEM] ([3]; 0.30 mg/kg oral): 917 ± 73 cm/60 min
effect on mixture-induced hyperactivity ([4]; cariprazine hydrochloride 0.10 and 0.30 mg/kg oral): significantly decreased
Total Distance Traveled [mean ± SEM] ([4]; 0.03 mg/kg oral): 32122 ± 2942 cm/60 min
Total Distance Traveled [mean ± SEM] ([4]; 0.10 mg/kg oral): 13688 ± 2349 cm/60 min
Total Distance Traveled [mean ± SEM] ([4]; 0.30 mg/kg oral): 2525 ± 204 cm/60 min

CN(C)CCC[C@@]1(c2ccc(F)cc2)OCc2cc(C#N)ccc21 [Escitalopram oxalate, 1-[3-(dimethyl-amino)propyl]-1-(p-fluorophenyl)-5-phthalancarbonitrile]
Total Distance Traveled [mean ± SEM] ([1]; escitalopram oxalate 0.10 mg/kg oral): 5551 ± 382 cm/60 min
Total Distance Traveled [mean ± SEM] ([1]; escitalopram oxalate 0.50 mg/kg oral): 5238 ± 242 cm/60 min
change in basal ACh levels compared to vehicle+saline-treated controls ([2]; 100 min post-administration): −55%
change in basal ACh levels compared to vehicle+saline-treated controls ([2]; 240 min post-administration): −56%
Total Distance Traveled [mean ± SEM] ([3]; 0.50 mg/kg oral): 4435 ± 389 cm/60 min
Total Distance Traveled [mean ± SEM] ([3]; 5.0 mg/kg oral): 6499 ± 445 cm/60 min
effect on mixture-induced hyperactivity ([4]; escitalopram oxalate 0.5 mg/kg oral): trend toward a significant decrease
effect on mixture-induced hyperactivity ([4]; escitalopram oxalate 5.0 mg/kg oral): increased
Total Distance Traveled [mean ± SEM] ([4]; 0.50 mg/kg oral): 30067 ± 1901 cm/60 min
Total Distance Traveled [mean ± SEM] ([4]; 2.0 mg/kg oral): 36112 ± 1934 cm/60 min
Total Distance Traveled [mean ± SEM] ([4]; 5.0 mg/kg oral): 39639 ± 1582 cm/60 min
